Data published in paper PMC5329948, “Caspase vinyl sulfone small molecule inhibitors prevent axonal degeneration in human neurons and reverse cognitive impairment in Caspase-6-overexpressing mice” (Molecular Neurodegeneration, 2017).

Key:
[1] = tested on: Casp6 (mutant huntingtin cleavage); parameters: method as in PMID 25616965; details: read-out: IC50 against mutant huntingtin cleavage (FRET); cited from earlier work
[2] = tested on: Casp6 (VEID-aminoluciferin cleavage); parameters: method as in PMID 25616965; details: read-out: inhibition of cleavage of VEID-aminoluciferin; cited from earlier work
Caspase-5 = tested on: Caspase-5; parameters: method as in PMID 25616965; details: cited from earlier work
recombinant Casp6 = tested on: recombinant Casp6; parameters: method as in PMID 9092497; details: read-out: Michaelis-Menten constant (Km) for recombinant Casp6; cited from earlier work
Caspase-3 = tested on: Caspase-3; parameters: method as in PMID 9092497; details: read-out: Michaelis-Menten constant (Km) for Caspase-3; cited from earlier work
[3] = tested on: APPWT-transfected primary human CNS neurons; assay: Neuritic beading/degeneration in APPWT-transfected primary human neurons; format: cell-based; details: NWL 100 μM, Z-VEID-fmk 5 μM
Description: Immunofluorescence on human neuron cultures: Primary human neurons were pre-treated 2 h and serum-deprived in the presence of 100 μM NWL-117, 100 μM NWL-154, or 5 μM Z-VEID-fmk (Biomol, Plymouth meeting, PA, USA) for 24 h. Following treatment, human neurons were washed once with warm PBS, fixed for 20 min at room temperature with 4% paraformaldehyde (Sigma, Oakville, ON, CA)/4% sucrose (BioRad, Mississauga, ON, CA) for TubΔCasp6 or 2% formaldehyde (Thermo Fisher Scientific, Waltham, MA, USA)/0.2% glutaraldehyde (Sigma, Oakville, ON, CA) for pBudEGFP or pBudEGFP/APP^WT-transfected neurons, incubated in permeabilization buffer (0.1% Triton X-100, 0.1 sodium citrate) for 1 min on ice, washed with PBS, blocked for 20 min at room temperature with 10% goat serum (Sigma, Oakville, ON, CA), and incubated with primary antibodies diluted in 10% goat serum in PBS overnight at 4 °C in a humid chamber. The glass coverslips were washed with PBS, and incubated with goat anti-rabbit secondary antibody coupled to Alexa 488 (Molecular Probes, Eugene, OR, USA) or Cy3 (GE Healthcare Life Sciences, Baie D’Urfe, QC, CA) and Hoechst 33342 (ImmunoChemistry, Bloomington, MN, USA) at 1 μg/mL for 2 h at room temperature. The coverslips were washed with PBS and rinsed in Milli-Q water before mounting in fluoromount (Dako, Burlington, ON, CA). Images were acquired by fluorescence microscopy and quantified using the ImageJ software (NIH, Bethesda, MD, USA) for TubΔCasp6 and manually counted for transfected EGFP(+)-neurons. Time lapse-imaging by live fluorescence microscopy: Primary human neurons were transfected with gold beads coated with pBudEGFP or pBudEGFP/APP^WT using a Helios Gene gun (BioRad, Mississauga, ON, CA). Briefly, cells were pre-treated with 100 μM NWL inhibitors or 5 μM Z-VEID-fmk for 2 h. The media was removed and the neurons were shot at 100 psi. The media was quickly replaced with the inhibitors present. The plasmid was expressed for 16 h before setting up the fluorescence microscope (Nikon Eclipse Ti) to acquire 20 images per condition every hour for 72 h at 37 °C with 5% CO2. The images were analyzed by counting the total number of neurons (50–100 neurons per condition per independent experiment), and the number of beaded, swollen soma, and healthy neurons. In addition, the time at which cells beaded was noted. Phase contrast microscopy: HCT116 cells, plated at a density of 1×10^5 cells/well and human neurons, plated at a density of 6×10^6 cells/well on poly-L-lysine were treated with PBS, 100 μM NWL-117, 100 μM NWL-154, or 2 μM staurosporine (Biomol, Plymouth meeting, PA, USA) for 24 h. Images were acquired with the Nikon Eclipse Ti microscope and the NIS-Elements (Version 3.10) software.

mammals = details: fmk moiety metabolized into fluorocitrate; cited from earlier work

ED11: 24 amino acid peptide (GRKKRRQRRRPPQSSEIVLDGTDN) containing HIV TAT-peptide and huntingtin sequences; Casp6 inhibitor
IC50 [1]: 12.1 nM | IC50 [2]: > 10000 nM | Caspase-5 activity on the FRET assay (Caspase-5): significant enhancement

VEID: Val-Glu-Ile-Asp peptide substrate sequence preferred by Casp6 (printed: Val-Glu-Ile-Asp)
Km (recombinant Casp6): 30 µM | Km (Caspase-3): 250 µM

benzyloxycarbonyl-Val-Glu-Ile-Asp-fmk [Z-VEID-fmk, reference compound]
neuritic beading ([3]; APPWT/EGFP co-expression, 48 h): prevented neuritic beading | percentage of beaded neurons, fold of EGFP-alone ([3]; live imaging 72 h, APPWT vehicle 1.52, EGFP-alone 1.00, mean ± SEM): 0.97 fold | toxicity to mammals (mammals): toxic to mammals
